Assay results reported in US7879843B2, “Benzothiazin-3-one compound and intermediate therefor” (Dainippon Sumitomo Pharma Co., Ltd., priority 2004, dated 2011).
pIC50: −log10 of the molar value. Where a name gives a salt, the structure may show the parent alone. Values belong to the compound of their own block, whether it stands above or below them.

What was measured:
[1] = test system: rat partial-meniscectomy models; assay: Pharmacological test on rat partial-meniscectomy models; type: in vivo; details: 50 mg/kg, orally six times per week for 3 weeks, SD (IGS) male rats
Text: SD (IGS) male rats aged 6 weeks (purchased from Charles River Japan Inc.) were used. The hair on the knee joint portion of right hind leg of each rat was shaved with a hair clipper under etherisation, and then the skin on the joint side of the lateral collateral ligament was incised along the ligament. Subsequently, the fascia was incised and the lateral collateral ligament was resected in a length of about 3 mm. Thereafter, the medial meniscus was exposed and the matters adhering to the meniscus were removed. The meniscus was picked up with tweezers and a part of the meniscus was cut off along the tweezers with microscissors. The fascia and the skin were sutured. One week after the above treatment, the administration of each test compound was started. The volume of the test compound administered was 10 ml/kg (solvent: 0.5% methyl cellulose) and the test compound was orally administered six times per week for 3 weeks. After the body weight was measured, the shinbone of the right hind leg was collected and fixed in 10% neutral buffered formalin. […] The average of scores for rats in each group was calculated and the degree of chondrodegeneration of a pathosis control group was taken as 100%. The chondrodegeneration inhibition rate of each compound was calculated by the following equation: Inhibition rate=1−(average score value of drug-treated group/score value of control group)×100

human MMP-13 = molecular target: T1, human MMP-13 (Homo sapiens, UniProt P45452); assay: Inhibitory activity against MMP-13 (fluorogenic MCA substrate); type: biochemical; details: activated human MMP-13, 37° C. for 12 hours
T1 construct: made in house; host or cells: COS-1 cells (pcDNA I vector), culture supernatant
Text: As MMP-13, there was used one which had been prepared by genetic engineering (using a well-known human chondrocyte cDNA library as a template, cDNA fragments were amplified by PCR by the use of primers 5′-[…]-3′ (SEQ ID NO: 1) and 5′-[…]-3′ (SEQ ID NO: 2) and each of the cDNA fragments amplified was inserted in a vector pcDNA I, and the vector was introduced into COS-1 cells derived from Afurikamidorizaru kidney, followed by culture and the recovery of the supernatant of a culture medium) on the basis of the well-known genetic base sequence of human MMP-13 (J. Biol. Chem., 269 (24), 16766-16773 (1994)) and had been activated by maintaining the thus prepared MMP-13 at 37° C. for 2 hours in the presence of 1 mM mercury 4-aminophenylacetate.
Inhibitory activity against human MMP-13 was measured according to the method of C. G. Knight et al. (FEBS Lett., 296 (3), 263-266 (1992)).
That is, 45 μl of assay buffer (0.1M Tris-hydrochloric acid, 0.1M sodium chloride, 0.01M calcium chloride, 0.05% Brigy 35, pH=7.5) was placed in a 96-well micro-titer plate for fluorometry, and 5 μl of a solution of a test compound in dimethyl sulfoxide was added thereto. […] After the micro-titer plate was maintained at 37° C. for 12 hours to carry out the reaction, fluorescence was measured with the fluorescence plate reader to measure the residual enzyme activity.

melting point: 143.5 to 144.5 °C
Structure (SMILES): CCOC(=O)c1ccc2c(c1)N(CC(=O)NO)C(=O)[C@H](CCCc1ccc(OC)cc1)S2 (as salt: TFA) [Example 7, (−)-Ethyl 4-[2-(hydroxyamino)-2-oxoethyl]-2-[3-(4-methoxyphenyl)propyl]-3-oxo-3,4-dihydro-2H-1,4-benzothiazine-6-carboxylate]

Structure (SMILES): CCOC(=O)c1ccc2c(c1)N(CC(=O)NO)C(=O)[C@H](CCCc1ccc(OC)cc1)S2 [Example 7, (−)-Ethyl 4-[2-(hydroxyamino)-2-oxoethyl]-2-[3-(4-methoxyphenyl)propyl]-3-oxo-3,4-dihydro-2H-1,4-benzothiazine-6-carboxylate]
chondrodegeneration inhibition rate [1]: 52%

pIC50 (human MMP-13): 7.36
Structure (SMILES): COc1ccc(CCC[C@@H]2Sc3ccc(C(=O)O)cc3N(CC(=O)NO)C2=O)cc1 [Example 14, (−)-4-[2-(Hydroxyamino)-2-oxoethyl]-2-[3-(4-methoxyphenyl)propyl]-3-oxo-3,4-dihydro-2H-1,4-benzothiazine-6-carboxylic acid]
